# Measured values from US7960422B2, “Pharmaceutically active compounds containing tetrazolyl and triazolyl rings” (AstraZeneca AB, priority 2007, dated 2011).
# Molecular target: T1, human mGluR5d (Homo sapiens, UniProt P41594)
# T1 construct: expressed in transfected cells
# Assay: IP3 assay (phosphatidylinositol turnover, functional mGluR5 antagonism)
# Format: cell-based
# Details: GHEK cells stably expressing human mGluR5d; glutamate (80 μM) or DHPG (30 μM) as agonist
# Excerpt: Biological Evaluation Functional Assessment of mGluR5 Antagonism in Cell Lines Expressing mGluR5D
# The properties of the compounds of the invention can be analyzed using standard assays for pharmacological activity. Examples of glutamate receptor assays are well known in the art as described in for example Aramori et al., Neuron 8:757 (1992), Tanabe et al., Neuron 8:169 (1992), Miller et al., J. Neuroscience 15: 6103 (1995), Balazs, et al., J. Neurochemistry 69:151 (1997). The methodology described in these publications is incorporated herein by reference. Conveniently, the compounds of the invention can be studied by means of an assay (FLIPR) that measures the mobilization of intracellular calcium, [Ca^2+]i in cells expressing mGluR5 or another assay (IP3) that measures inositol phosphate turnover.
# An additional functional assay for mGluR5d is described in WO97/05252 and is based on phosphatidylinositol turnover. Receptor activation stimulates phospholipase C activity and leads to increased formation of inositol 1,4,5,triphosphate (IP3).
# GHEK stably expressing the human mGluR5d are seeded onto 24 well poly-L-lysine coated plates at 40×10^4 cells/well in media containing 1 μCi/well [3H] myo-inositol. Cells were incubated overnight (16 h), then washed three times and incubated for 1 h at 37° C. in HEPES buffered saline (146 mM NaCl, 4.2 mM KCl, 0.5 mM MgCl2, 0.1% glucose, 20 mM HEPES, pH 7.4) supplemented with 1 unit/ml glutamate pyruvate transaminase and 2 mM pyruvate. Cells are washed once in HEPES buffered saline and pre-incubated for 10 min in HEPES buffered saline containing 10 mM LiCl. Compounds are incubated in duplicate at 37° C. for 15 min, then either glutamate (80 μM) or DHPG (30 μM) is added and incubated for an additional 30 min. The reaction is terminated by the addition of 0.5 ml perchloric acid (5%) on ice, with incubation at 4° C. for at least 30 min. Samples are collected in 15 ml polyproplylene tubes and inositol phosphates are separated using ion-exchange resin (Dowex AG1-X8 formate form, 200-400 mesh, BIORAD) columns. Inositol phosphate separation was done by first eluting glycero phosphatidyl inositol with 8 ml 30 mM ammonium formate. Next, total inositol phosphates is eluted with 8 ml 700 mM ammonium formate/100 mM formic acid and collected in scintillation vials. This eluate is then mixed with 8 ml of scintillant and [3H] inositol incorporation is determined by scintillation counting. The dpm counts from the duplicate samples are plotted and IC50 determinations are generated using a linear least squares fitting program.
# T1 sequence (P41594 21-942 isoform P41594-3 limits assumed): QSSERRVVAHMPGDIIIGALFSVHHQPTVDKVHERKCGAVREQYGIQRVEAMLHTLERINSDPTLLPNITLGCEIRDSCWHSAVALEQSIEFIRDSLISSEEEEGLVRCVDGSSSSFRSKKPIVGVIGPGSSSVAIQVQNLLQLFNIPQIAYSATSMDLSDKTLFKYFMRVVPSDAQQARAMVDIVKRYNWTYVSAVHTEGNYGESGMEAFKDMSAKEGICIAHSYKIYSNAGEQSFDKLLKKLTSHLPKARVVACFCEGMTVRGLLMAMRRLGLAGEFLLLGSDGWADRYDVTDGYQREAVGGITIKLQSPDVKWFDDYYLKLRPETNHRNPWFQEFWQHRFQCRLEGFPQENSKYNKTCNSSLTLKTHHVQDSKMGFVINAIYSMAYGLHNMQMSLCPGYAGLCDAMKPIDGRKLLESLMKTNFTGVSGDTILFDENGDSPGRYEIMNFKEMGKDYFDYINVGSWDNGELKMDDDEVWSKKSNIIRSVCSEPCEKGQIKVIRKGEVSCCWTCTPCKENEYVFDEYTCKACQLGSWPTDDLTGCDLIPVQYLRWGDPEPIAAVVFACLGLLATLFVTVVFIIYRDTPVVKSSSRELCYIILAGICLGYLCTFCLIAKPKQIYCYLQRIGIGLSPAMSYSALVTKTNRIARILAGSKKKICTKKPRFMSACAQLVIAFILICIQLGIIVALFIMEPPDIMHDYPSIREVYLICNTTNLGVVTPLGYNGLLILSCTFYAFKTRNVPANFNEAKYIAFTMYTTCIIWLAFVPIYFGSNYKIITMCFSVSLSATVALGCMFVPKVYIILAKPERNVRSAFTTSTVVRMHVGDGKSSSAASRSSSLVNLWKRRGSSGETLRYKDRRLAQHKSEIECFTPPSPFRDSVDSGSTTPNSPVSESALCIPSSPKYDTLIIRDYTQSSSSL
row,IC50 [nM],SMILES
1,36,"Cc1cccc(-n2nnc([C@@H](C)Oc3nnc(-c4ncccn4)n3C)n2)c1 [Example 10.1, 2-(4-methyl-5-{(1R)-1-[2-(3-methylphenyl)-2H-tetrazol-5-yl]ethoxy}-4H-1,2,4-triazol-3-yl)pyrimidine]"
2,25,"Cc1cccc(-n2nnc([C@@H](C)Oc3nnc(-c4cncnc4)n3C)n2)c1 [Example 10.2, 5-(4-methyl-5-{(1R)-1-[2-(3-methylphenyl)-2H-tetrazol-5-yl]ethoxy}-4H-1,2,4-triazol-3-yl)pyrimidine]"
3,22,"Cc1cccc(-n2nnc([C@@H](C)Oc3nnc(-c4cnc(C)cn4)n3C)n2)c1 [Example 10.3, 2-methyl-5-(4-methyl-5-{(1R)-1-[2-(3-methylphenyl)-2H-tetrazol-5-yl]ethoxy}-4H-1,2,4-triazol-3-yl)pyrazine]"
4,20,"Cc1cccc(-n2nnc([C@@H](C)Oc3nnc(-c4ccnc(C)c4)n3C)n2)c1 [Example 10.4, 2-methyl-4-(4-methyl-5-{(1R)-1-[2-(3-methylphenyl)-2H-tetrazol-5-yl]ethoxy}-4H-1,2,4-triazol-3-yl)pyridine]"
5,23,Cc1cccc(-n2nnc([C@@H](C)Oc3nnc(-c4cccnc4)n3C)n2)c1 [Example 10.5]
